Results from patent publication US20240400572A1, “COMPOUNDS AND METHODS FOR TREATING CANCERS THAT ARE MGMT DEFICIENT REGARDLESS OF MMR STATUS” (Yale University, priority 2021, published 2024).
“And” between values parts separate entries of the source, which are not always exact repeats. Identical values can stand only once. Like-named read-outs stand apart in the source and are kept apart here.

Assay: Brain distribution study
Format: in vivo, male C57BL/6 mice
Details: PO 20 mg/kg, male C57BL/6 mice
Procedure: Compound KL50 dosing solution: 3.39% DMSO+96.61% (10% HP-β-CD in saline) at 2 mg/mL; • 1) Weigh 17.39 mg of compound KL50 into a clean tube. • 2) Add 0.295 mL DMSO into the tube containing the compound. • 3) Vortex the tube for 3 min and sonicate it for 4 min. • 4) Add 8.400 mL 10% HP-β-CD in saline into the tube and vortex the tube for 3 min. Compound I-1 dosing solution: 3.39% DMSO+96.61% (10% HP-β-CD in saline) at 2 mg/mL; • 1) Weigh 16.86 mg Compound I-1 into a clean tube. • 2) Add 0.286 mL DMSO into the tube containing the compound. • 3) Vortex the tube for 3 min and sonicate it for 4 min. • 4) Add 8.144 mL 10% HP-β-CD in saline into the tube and vortex the tube for 3 min.
The in-vivo pharmacokinetic and brain distribution study was conducted under the following parameters. Twenty seven C57BL/6 male mice were purchased from Shanghai JiHui Laboratory Animal Co. LTD. Each mouse weighted from 16 g to 17 g. The mice were fasted overnight and fed post 4 hr sampling. Compound KL50 and Compound I-I were administered via oral gavage (PO) at a dose of 20 mg/kg (10 mL/kg). After dosing, sampling was completed at 0.083, 0.167, 0.333, 0.5, 0.75, 1, 2, 4 and 8 hr post dose, with three mice sacrificed at each time point.
Terminal bleeding for plasma and brain was completed at each time point. Approximately 110 μL blood per time point was collected into a K2EDTA tube via the facial vein. The blood sample was put on wet ice and centrifuged to obtain plasma sample (2000 g, 5 min under 4° C.) within 15 minutes. Plasma samples were acidified with 6 μL of formic acid for every 54 μL of plasma. After blood collection, a mid-line incision was made in the animal's scalp and the skin was retracted. The skull overlying the brain was removed. Then, the whole brain was collected, rinsed with cold saline, dried on filtrate paper, and weighed; and then snap frozen by placing the brain into dry-ice. Plasma samples were stored at approximately −70° C. until analysis. Brain tissue was homogenized with 3 volumes (v/w) of PBS (1% FA) and then analyzed with LC-MS/MS. The concentration of study drug was corrected with a dilution factor of four as following: Brain concentration=brain homogenate conc.×4, assuming 1 g wet brain tissue equals to 1 mL

NC(=O)c1ncn2c(=O)n(CCF)nnc12 [KL-50, 3-(2-fluoroethyl)-4-oxo-3H,4H-imidazo[4,3-d][1,2,3,5]tetrazine-8-carboxamide]
Brain Concentration/Plasma Concentration, Individuals (0.083 hr, 20 mg/kg): 0.0770 and 0.0693 | brain Concentration, Individuals (0.083 hr, 20 mg/kg): 1970 ng/g and 1940 ng/g | Brain Concentration/Plasma Concentration, Individuals (0.167 hr, 20 mg/kg): 0.123 and 0.156 | brain Concentration, Individuals (0.167 hr, 20 mg/kg): 2810 ng/g and 2820 ng/g | Brain Concentration/Plasma Concentration, Individuals (0.333 hr, 20 mg/kg): 0.206 and 0.213 | brain Concentration, Individuals (0.333 hr, 20 mg/kg): 2980 ng/g and 4450 ng/g | Brain Concentration/Plasma Concentration, Individuals (0.5 hr, 20 mg/kg): 0.260 and 0.250 | brain Concentration, Individuals (0.5 hr, 20 mg/kg): 3230 ng/g and 3830 ng/g | Brain Concentration/Plasma Concentration, Individuals (0.75 hr, 20 mg/kg): 0.278 and 0.331 | brain Concentration, Individuals (0.75 hr, 20 mg/kg): 3060 ng/g and 3380 ng/g | Brain Concentration/Plasma Concentration, Individuals (1 hr, 20 mg/kg): 0.345 and 0.266 | brain Concentration, Individuals (1 hr, 20 mg/kg): 2530 ng/g and 3270 ng/g | Brain Concentration/Plasma Concentration, Individuals (2 hr, 20 mg/kg): 0.347 and 0.335 | brain Concentration, Individuals (2 hr, 20 mg/kg): 953 ng/g and 1530 ng/g | Brain Concentration/Plasma Concentration, Individuals (4 hr, 20 mg/kg): 0.269 and 0.250 | brain Concentration, Individuals (4 hr, 20 mg/kg): 184 ng/g and 427 ng/g and 199 ng/g | Brain Concentration/Plasma Concentration, Individuals (8 hr, 20 mg/kg): 0.175 and 0.244 | brain Concentration, Individuals (8 hr, 20 mg/kg): 85.3 ng/g and 18.2 ng/g and 45.2 ng/g | AUCINF (brain): 7213 ng·h/g | AUClast (brain): 7128 ng·h/g | concentration at 0.083 hr (male, C57BL/6, mouse, brain, po, 20 mg/kg, 0.083 hr, N=3, read-out: brain Concentration, Mean): 1820 ng/g | concentration at 0.083 hr (male, C57BL/6, mouse, brain, po, 20 mg/kg, 0.083 hr, read-out: brain Concentration, Individuals): 1540 ng/g | concentration at 0.167 hr (male, C57BL/6, mouse, brain, po, 20 mg/kg, 0.167 hr, N=3, read-out: brain Concentration, Mean): 2940 ng/g | concentration at 0.167 hr (male, C57BL/6, mouse, brain, po, 20 mg/kg, 0.167 hr, read-out: brain Concentration, Individuals): 3180 ng/g | concentration at 0.333 hr (male, C57BL/6, mouse, brain, po, 20 mg/kg, 0.333 hr, N=3, read-out: brain Concentration, Mean): 3690 ng/g | concentration at 0.333 hr (male, C57BL/6, mouse, brain, po, 20 mg/kg, 0.333 hr, read-out: brain Concentration, Individuals): 3630 ng/g | concentration at 0.5 hr (male, C57BL/6, mouse, brain, po, 20 mg/kg, 0.5 hr, N=3, read-out: brain Concentration, Mean): 3600 ng/g | concentration at 0.5 hr (male, C57BL/6, mouse, brain, po, 20 mg/kg, 0.5 hr, read-out: brain Concentration, Individuals): 3730 ng/g | concentration at 0.75 hr (male, C57BL/6, mouse, brain, po, 20 mg/kg, 0.75 hr, N=3, read-out: brain Concentration, Mean): 3250 ng/g | concentration at 0.75 hr (male, C57BL/6, mouse, brain, po, 20 mg/kg, 0.75 hr, read-out: brain Concentration, Individuals): 3300 ng/g | concentration at 1 hr (male, C57BL/6, mouse, brain, po, 20 mg/kg, 1 hr, N=3, read-out: brain Concentration, Mean): 2910 ng/g | concentration at 1 hr (male, C57BL/6, mouse, brain, po, 20 mg/kg, 1 hr, read-out: brain Concentration, Individuals): 2920 ng/g | concentration at 2 hr (male, C57BL/6, mouse, brain, po, 20 mg/kg, 2 hr, N=3, read-out: brain Concentration, Mean): 1140 ng/g | concentration at 2 hr (male, C57BL/6, mouse, brain, po, 20 mg/kg, 2 hr, read-out: brain Concentration, Individuals): 934 ng/g | concentration at 4 hr (male, C57BL/6, mouse, brain, po, 20 mg/kg, 4 hr, N=3): 270 ng/g | concentration at 8 hr (male, C57BL/6, mouse, brain, po, 20 mg/kg, 8 hr, N=3): 49.6 ng/g | Kp (male, C57BL/6, mouse, brain/plasma, po, 20 mg/kg, AUCbrain/AUCplasma, heading: AUCbrain/AUCplasma): 25.1% | Kp at 0.083 hr (male, C57BL/6, mouse, brain/plasma, po, 20 mg/kg, 0.083 hr, N=3, read-out: Brain Concentration/Plasma Concentration, Mean): 0.0718 | Kp at 0.083 hr (male, C57BL/6, mouse, brain/plasma, po, 20 mg/kg, 0.083 hr, read-out: Brain Concentration/Plasma Concentration, Individuals): 0.0691 | Kp at 0.167 hr (male, C57BL/6, mouse, brain/plasma, po, 20 mg/kg, 0.167 hr, N=3, read-out: Brain Concentration/Plasma Concentration, Mean): 0.136 | Kp at 0.167 hr (male, C57BL/6, mouse, brain/plasma, po, 20 mg/kg, 0.167 hr, read-out: Brain Concentration/Plasma Concentration, Individuals): 0.13 | Kp at 0.333 hr (male, C57BL/6, mouse, brain/plasma, po, 20 mg/kg, 0.333 hr, N=3, read-out: Brain Concentration/Plasma Concentration, Mean): 0.203 | Kp at 0.333 hr (male, C57BL/6, mouse, brain/plasma, po, 20 mg/kg, 0.333 hr, read-out: Brain Concentration/Plasma Concentration, Individuals): 0.191 | Kp at 0.5 hr (male, C57BL/6, mouse, brain/plasma, po, 20 mg/kg, 0.5 hr, N=3, read-out: Brain Concentration/Plasma Concentration, Mean): 0.257 | Kp at 0.5 hr (male, C57BL/6, mouse, brain/plasma, po, 20 mg/kg, 0.5 hr, read-out: Brain Concentration/Plasma Concentration, Individuals): 0.259 | Kp at 0.75 hr (male, C57BL/6, mouse, brain/plasma, po, 20 mg/kg, 0.75 hr, N=3, read-out: Brain Concentration/Plasma Concentration, Mean): 0.318 | Kp at 0.75 hr (male, C57BL/6, mouse, brain/plasma, po, 20 mg/kg, 0.75 hr, read-out: Brain Concentration/Plasma Concentration, Individuals): 0.344 | Kp at 1 hr (male, C57BL/6, mouse, brain/plasma, po, 20 mg/kg, 1 hr, N=3, read-out: Brain Concentration/Plasma Concentration, Mean): 0.296 | Kp at 1 hr (male, C57BL/6, mouse, brain/plasma, po, 20 mg/kg, 1 hr, read-out: Brain Concentration/Plasma Concentration, Individuals): 0.278 | Kp at 2 hr (male, C57BL/6, mouse, brain/plasma, po, 20 mg/kg, 2 hr, N=3, read-out: Brain Concentration/Plasma Concentration, Mean): 0.348 | Kp at 2 hr (male, C57BL/6, mouse, brain/plasma, po, 20 mg/kg, 2 hr, read-out: Brain Concentration/Plasma Concentration, Individuals): 0.362 | Kp at 4 hr (male, C57BL/6, mouse, brain/plasma, po, 20 mg/kg, 4 hr, N=3, read-out: Brain Concentration/Plasma Concentration, Mean): 0.231 | Kp at 4 hr (male, C57BL/6, mouse, brain/plasma, po, 20 mg/kg, 4 hr, read-out: Brain Concentration/Plasma Concentration, Individuals): 0.174 | Kp at 8 hr (male, C57BL/6, mouse, brain/plasma, po, 20 mg/kg, 8 hr, N=3, read-out: Brain Concentration/Plasma Concentration, Mean): 0.233 | Kp at 8 hr (male, C57BL/6, mouse, brain/plasma, po, 20 mg/kg, 8 hr, read-out: Brain Concentration/Plasma Concentration, Individuals): 0.28 | Cmax (mouse, brain): 3690 ng/g | MRT inf (mouse, brain): 1.57 h | Tmax (mouse, brain): 0.333 h | half-life (mouse, brain): 1.18 h
